Reference: patent publication EP3079693B1 (priority 2013, dated 2015)

Tests used:
[1] = test system: constitutive gene expression; test: Counter screen: separate reporter system with cell death-activated reporter construct (constitutive gene expression); settings: for observed toxicity or efficacy in either assay tested: antiviral and counterscreen assay; for toxicity in antiviral and counterscreen assays: at 50uM, both antiviral and counterscreen assay
[2] = molecular target: T1, influenza A RNA-dependent RNA polymerase (Influenza A virus, UniProt P03428+P03431+P03433); test: cell-based
[3] = molecular target: T1, influenza A RNA-dependent RNA polymerase
[4] = test system: influenza A/Puerto Rico/8/34 (H1N1) virus; type: cell-based

Structure (SMILES) | observed toxicity or efficacy in either assay tested [1] | IC50 [2] | toxicity in antiviral and counterscreen assays [1] | toxicity in the reporter assay [3] | concentrations with significant antiviral activity [4]
CCc1c(C)nc2cc(-c3cc(C)on3)nn2c1NCCc1ccccn1 [A0445, 6-ethyl-5-methyl-2-(5-methylisoxazol-3-yl)-N-(2-(pyridin-2-yl)ethyl)pyrazolo[1,5-a]pyrimidin-7-amine] | >50 µM (no observed toxicity or efficacy in either assay tested) | > 50 µM |  |  | 
CCc1c(C)nc2cc(-c3ccc(OC)c(OC)c3)nn2c1NCc1cc(OC)ccc1OC [A0526, N-(2,5-dimethoxybenzyl)-2-(3,4-dimethoxyphenyl)-6-ethyl-5-methylpyrazolo[1,5-a]pyrimidin-7-amine] | >50 µM (no observed toxicity or efficacy in either assay tested) | > 50 µM |  |  | 
COc1cc(OC)cc(-c2cc3nc(C)cc(NCC(C)c4ccccc4)n3n2)c1 (stereo not drawn) [A0525, 2-(3,5-dimethoxyphenyl)-5-methyl-N-(2-phenylpropyl)pyrazolo[1,5-a]pyrimidin-7-amine] | >50 µM (no observed toxicity or efficacy in either assay tested) | > 50 µM |  |  | 
COc1ccc(-c2cc3nc(C)c(C)c(N4CCCC4)n3n2)cc1OC [A0443, 2-(3,4-dimethoxyphenyl)-5,6-dimethyl-7-(pyrrolidin-1-yl)pyrazolo[1,5-a]pyrimidine] | >50 µM (no observed toxicity or efficacy in either assay tested) | > 50 µM |  |  | 
COc1ccc(-c2c(C)nn3c(NCC(C)c4ccccc4)cc(C)nc23)cc1OC (stereo not drawn) [A0549, 3-(3,4-dimethoxyphenyl)-2,5-dimethyl-N-(2-phenylpropyl)pyrazolo[1,5-a]pyrimidin-7-amine] | >50 µM (no observed toxicity or efficacy in either assay tested) | > 50 µM |  |  | 
Cc1ccc(-c2cc3nc4c(c(NCCc5ccccn5)n3n2)CCC4)cc1 [A0437, N-(2-(pyridin-2-yl)ethyl)-2-p-tolyl-6,7-dihydro-5H-cyclopenta[d]pyrazolo[1,5-a]pyrimidin-8-amine] | >50 µM (no observed toxicity or efficacy in either assay tested) | > 50 µM |  |  | 
CCc1c(C)nc2cc(-c3ccc(OC)c(OC)c3)nn2c1NCCc1ccc(OC)c(OC)c1 [A0438, N-(3,4-dimethoxyphenethyl)-2-(3,4-dimethoxyphenyl)-6-ethyl-5-methylpyrazolo[1,5-a]pyrimidin-7-amine] |  | > 10 µM | >10uM (toxic to both antiviral and counterscreen at 50uM) |  | 
CCc1c(C)nc2cc(-c3ccc(OC)c(OC)c3)nn2c1NCCc1ccc(F)cc1 [A0440, 2-(3,4-dimethoxyphenyl)-6-ethyl-N-(4-fluorophenethyl)-5-methylpyrazolo[1,5-a]pyrimidin-7-amine] | >50 µM (no observed toxicity or efficacy in either assay tested) | > 50 µM |  |  | 
COc1ccc(-c2cc3nc(-c4ccccc4)cc(NCc4ccccc4C)n3n2)cc1OC [A0528, 2-(3,4-dimethoxyphenyl)-N-(2-methylbenzyl)-5-phenylpyrazolo[1,5-a]pyrimidin-7-amine] | >50 µM (no observed toxicity or efficacy in either assay tested) | > 50 µM |  |  | 
COc1ccc(-c2cc3nccc(NCc4ccccc4OC)n3n2)cc1 [A0547, N-(2-methoxybenzyl)-2-(4-methoxyphenyl)pyrazolo[1,5-a]pyrimidin-7-amine] | >50 µM (no observed toxicity or efficacy in either assay tested) | > 50 µM |  |  | 
Clc1ccc(-c2cc3nc4c(c(NCCc5ccccn5)n3n2)CCCC4)cc1 [A0442, 2-(4-chlorophenyl)-N-(2-(pyridin-2-yl)ethyl)-5,6,7,8-tetrahydropyrazolo[5,1-b]quinazolin-9-amine] |  | > 10 µM | >10uM (toxic to both antiviral and counterscreen at 50uM) |  | 
COc1ccc(-c2cc3nc4c(c(NCCc5cccnc5)n3n2)CCC4)cc1OC [A0444, 2-(3,4-dimethoxyphenyl)-N-(2-(pyridin-3-yl)ethyl)-6,7-dihydro-5H-cyclopenta[d]pyrazolo[1,5-a]pyrimidin-8-amine] |  | > 10 µM | >10uM (toxic to both antiviral and counterscreen at 50uM) |  | 
COc1ccc(-c2cc3nc(C)cc(NCc4ccccc4)n3n2)cc1 [A0548, N-benzyl-2-(4-methoxyphenyl)-5-methylpyrazolo[1,5-a]pyrimidin-7-amine] | >50 µM (no observed toxicity or efficacy in either assay tested) | > 50 µM |  |  | 
COc1ccc(-c2c(C)nn3c(N4CCc5ccccc5C4)cc(C)nc23)cc1OC [A0550, 2-(3-(3,4-dimethoxyphenyl)-2,5-dimethylpyrazolo[1,5-a]pyrimidin-7-yl)-1,2,3,4-tetrahydroisoquinoline] | >50 µM (no observed toxicity or efficacy in either assay tested) | > 50 µM |  |  | 
CCc1c(C)nc2cc(-c3ccc(F)cc3)nn2c1NCCc1ccccn1 [A0436, 6-ethyl-2-(4-fluorophenyl)-5-methyl-N-(2-(pyridin-2-yl)ethyl)pyrazolo[1,5-a]pyrimidin-7-amine] |  | > 10 µM | >10uM (toxic to both antiviral and counterscreen at 50uM) |  | 
COc1ccc(-c2cc3c(=O)[nH]nc(SCc4ccc5c(c4)OCO5)n3n2)cc1OC [A0551, 7-(benzo[d][1,3]dioxol-5-ylmethylthio)-2-(3,4-dimethoxyphenyl)pyrazolo[1,5-d][1,2,4]triazin-4(5H)-one] | >50 µM (no observed toxicity or efficacy in either assay tested) | > 50 µM |  |  | 
CCOc1ccc(-c2cc3c(SCc4cccc(C)c4)nccn3n2)cc1 [A0552, 2-(4-ethoxyphenyl)-4-(3-methylbenzylthio)pyrazolo[1,5-a]pyrazine] | >50 µM (no observed toxicity or efficacy in either assay tested) | > 50 µM |  |  | 
COc1ccc(-c2cc3nc4c(c(NCc5ccccc5F)n3n2)CCCC4)cc1 [A0529, N-(2-fluorobenzyl)-2-(4-methoxyphenyl)-5,6,7,8-tetrahydropyrazolo[5,1-b]quinazolin-9-amine] | >50 µM (no observed toxicity or efficacy in either assay tested) | > 50 µM |  |  | 
Cc1cc(NCC(O)c2cccc(O)c2)n2nc(-c3cccc(F)c3)cc2n1 (stereo not drawn) [A0532, 3-(2-(2-(3-fluorophenyl)-5-methylpyrazolo[1,5-a]pyrimidin-7-ylamino)-1-hydroxyethyl)phenol] | >50 µM (no observed toxicity or efficacy in either assay tested) | > 50 µM |  |  | 
Fc1ccc(-c2cc3nc4c(c(NCCc5ccccn5)n3n2)CCCC4)cc1 [A0441, 2-(4-fluorophenyl)-N-(2-(pyridin-2-yl)ethyl)-5,6,7,8-tetrahydropyrazolo[5,1-b]quinazolin-9-amine] |  | > 10 µM | >10uM (toxic to both antiviral and counterscreen at 50uM) |  | 
CCc1c(C)nc2cc(-c3ccc(OC)c(OC)c3)nn2c1NCCc1ccccc1C [A0439, 2-(3,4-dimethoxyphenyl)-6-ethyl-5-methyl-N-[2(2-methylphenyl)ethyl]pyrazolo[1,5-a]pyrimidin-7-amine] |  | ~5 µM |  | increased toxicity at higher doses due to precipitation | > 7.5 µM
Cc1cc(NC(CO)C(O)c2ccccc2)n2nc(-c3cccc(F)c3)cc2n1 (stereo not drawn) [A0531, 2-(2-(3-fluorophenyl)-5-methylpyrazolo[1,5-a]pyrimidin-7-ylamino)-1-phenylpropane-1,3-diol] | >50 µM (no observed toxicity or efficacy in either assay tested) | > 50 µM |  |  | 
COc1ccc(-c2cc3nc(C)cc(NCc4ccc5c(c4)OCO5)n3n2)cc1 [A0530, N-(benzo[d][1,3]dioxol-5-ylmethyl)-2-(4-methoxyphenyl)-5-methylpyrazolo[1,5-a]pyrimidin-7-amine] | >50 µM (no observed toxicity or efficacy in either assay tested) | > 50 µM |  |  | 
COc1ccc(-c2cc3c(=O)[nH]nc(SCc4ccccc4Cl)n3n2)cc1OC [A0553, 7-(2-chlorobenzylthio)-2-(3,4-dimethoxyphenyl)pyrazolo[1,5-d][1,2,4]triazin-4(5H)-one] | >50 µM (no observed toxicity or efficacy in either assay tested) | > 50 µM |  |  | 
CCc1c(C)nc2cc(-c3cc(OC)cc(OC)c3)nn2c1NCCc1ccccc1 [A0527, 2-(3,5-dimethoxyphenyl)-6-ethyl-5-methyl-N-phenethylpyrazolo[1,5-a]pyrimidin-7-amine] | >50 µM (no observed toxicity or efficacy in either assay tested) | > 50 µM |  |  | 
